Reference: ChEMBL document CHEMBL3046316, “Synthesis and Acaricidal Activity of N-(1,3,4-Thiadiazol-2-yl)pyrazole-5-carboxamides and N-(1,3,4-Thiadiazol-2-yl)thiazole-5-carboxamides” (2003)

System: Tetranychus urticae
Test: Acaricidal activity against Tetranychus urticae (two-spotted spider mite) assessed as mite mortality at 50 ppm relative to untreated control
Format: functional

**Q.** `Cc1nc(C(C)(C)C)sc1C(=O)Nc1nnc(C(F)(F)C(F)(F)C(F)(F)F)s1` was tested. Which mortality at 50 ppm did it give?
**A.** > 80%

**Q.** Which mortality at 50 ppm does the source give for `Cn1nc(C(C)(C)C)c(Cl)c1C(=O)Nc1nnc(C(F)(F)F)s1` here?
**A.** > 80%

**Q.** How did the mortality at 50 ppm turn out when `Cc1nc(C(C)(C)C)sc1C(=O)Nc1nnc(C(F)(F)C(F)(F)C(F)(F)C(F)(F)F)s1` was run?
**A.** > 80%

**Q.** Which mortality at 50 ppm does the source give for `Cc1nc(C(C)(C)C)sc1C(=O)Nc1nnc(C(F)(F)C(F)(F)F)s1` here?
**A.** > 80%

**Q.** For `Cn1nc(C(C)(C)C)c(Cl)c1C(=O)Nc1nnc(C(F)(F)C(F)(F)C(F)(F)C(F)(F)C(F)(F)F)s1`, which mortality at 50 ppm is on record?
**A.** > 80%

**Q.** Which mortality at 50 ppm does the source give for `Cn1nc(C(C)(C)C)c(Cl)c1C(=O)Nc1nnc(C(F)(F)C(F)(F)F)s1` here?
**A.** > 80%

**Q.** How did the mortality at 50 ppm turn out when `Cn1nc(C(C)(C)C)c(Cl)c1C(=O)Nc1nnc(C(F)(F)C(F)(F)C(F)(F)C(F)(F)F)s1` was run?
**A.** > 80%

**Q.** For `Cn1nc(C(C)(C)C)c(Cl)c1C(=O)Nc1nnc(C(F)(F)C(F)(F)C(F)(F)F)s1`, which mortality at 50 ppm is on record?
**A.** > 80%

System: Tetranychus urticae
Test: Acaricidal activity against Tetranychus urticae (two-spotted spider mite) assessed as mite mortality at 500 ppm relative to untreated control
Format: functional

**Q.** With `Cc1nc(C(C)(C)C)sc1C(=O)Nc1nnc(C(F)(F)F)s1` as the compound, how does the mortality at 500 ppm read?
**A.** < 80%

**Q.** Which mortality at 500 ppm does the source give for `CCc1nc(C)c(C(=O)Nc2nnc(C(F)(F)C(F)(F)C(F)(F)F)s2)s1` here?
**A.** < 80%

**Q.** `Cc1nc(C)c(C(=O)Nc2nnc(C(F)(F)C(F)(F)C(F)(F)F)s2)s1` was tested. Which mortality at 500 ppm did it give?
**A.** > 80%

**Q.** `Cn1nc(C(C)(C)C)c(Cl)c1C(=O)Nc1nnc(C(F)(F)C(F)F)s1` was tested. Which mortality at 500 ppm did it give?
**A.** < 80%

**Q.** How did the mortality at 500 ppm turn out when `Cc1nc(C(C)C)sc1C(=O)Nc1nnc(C(F)(F)C(F)(F)C(F)(F)F)s1` was run?
**A.** < 80%

**Q.** With `Cn1nc(C2CC2)c(Cl)c1C(=O)Nc1nnc(C(F)(F)F)s1` as the compound, how does the mortality at 500 ppm read?
**A.** > 80%

**Q.** With `Cn1nc(C(C)(C)C)c(I)c1C(=O)Nc1nnc(C(F)(F)F)s1` as the compound, how does the mortality at 500 ppm read?
**A.** < 80%

**Q.** Which mortality at 500 ppm does the source give for `CCCCc1nn(C)c(C(=O)Nc2nnc(C(F)(F)F)s2)c1Cl` here?
**A.** > 80%

**Q.** For `Cn1nc(C(C)(C)C)c(Cl)c1C(=O)Nc1nnc(C(F)(F)C(F)(F)C(F)(F)C(F)(F)C(F)(F)C(F)(F)F)s1`, which mortality at 500 ppm is on record?
**A.** < 80%

**Q.** With `Cn1nc(C(C)(C)C)c(Cl)c1C(=O)Nc1nnc(C(F)F)s1` as the compound, how does the mortality at 500 ppm read?
**A.** < 80%

**Q.** `Cn1nc(C(C)(C)C)cc1C(=O)Nc1nnc(C(F)(F)F)s1` was tested. Which mortality at 500 ppm did it give?
**A.** < 80%

System: Tetranychus urticae
Test: Acaricidal activity against Tetranychus urticae (two-spotted spider mite) assessed as mite mortality at 200 ppm relative to untreated control
Format: functional

**Q.** How did the mortality at 200 ppm turn out when `Cn1nc(C(C)(C)C)c(Br)c1C(=O)Nc1nnc(C(F)(F)F)s1` was run?
**A.** > 80%

**Q.** How did the mortality at 200 ppm turn out when `CC(C)c1nn(C)c(C(=O)Nc2nnc(C(F)(F)F)s2)c1Cl` was run?
**A.** > 80%

**Q.** For `CCCc1nn(C)c(C(=O)Nc2nnc(C(F)(F)F)s2)c1Cl`, which mortality at 200 ppm is on record?
**A.** > 80%

**Q.** `CC(C)Cc1nn(C)c(C(=O)Nc2nnc(C(F)(F)F)s2)c1Cl` was tested. Which mortality at 200 ppm did it give?
**A.** > 80%

**Q.** `CCc1nn(C)c(C(=O)Nc2nnc(C(F)(F)F)s2)c1Cl` was tested. Which mortality at 200 ppm did it give?
**A.** > 80%

**Q.** For `CCC(C)c1nn(C)c(C(=O)Nc2nnc(C(F)(F)F)s2)c1Cl` (stereo unspecified), which mortality at 200 ppm is on record?
**A.** > 80%

**Q.** With `Cc1nn(C)c(C(=O)Nc2nnc(C(F)(F)F)s2)c1Cl` as the compound, how does the mortality at 200 ppm read?
**A.** > 80%
